Experiments:
Aβ40 and Aβ42 = assay: Example 9: brain, CSF and plasma Aβ after once-a-day gavage in guinea pigs; format: in vivo, guinea pig; conditions: once-a-day for one week oral
Description: Guinea Pigs. Guinea Pigs (Harley strain, average weight 400 g corresponding to animals about 6 weeks old) were obtained from Charles River (Wilmington, Mass.). The animals were given free access to standard chow and water before and during the experiment. Gavage Formulation: Delivering a drug by gavage offers the advantage of accurate dosing but is traumatic and thus only suitable for relatively short dosing periods. Gavage delivery was used for the guinea pig work. E64d was resuspended in DMSO at indicated concentrations (see Figures, and below) and guinea pigs were gavaged daily using a feeding tube. Vehicle control animals were provided DMSO alone. Guinea Pig Gavage Dosing: Guinea pigs were gavaged daily for one week. Guinea pigs were lightly anesthetized with isoflurane prior to gavaging. 250 μl of compound solution was gavaged daily per animal and animals were sacrificed 4 hrs after the last dosing.

cathepsin B [1] = assay: Example 9: brain cathepsin B activity in guinea pigs; format: in vivo, guinea pig; conditions: once-a-day oral
Experimental: (§1) Guinea Pig Gavage Dosing: Guinea pigs were gavaged daily for one week. Guinea pigs were lightly anesthetized with isoflurane prior to gavaging. 250 μl of compound solution was gavaged daily per animal and animals were sacrificed 4 hrs after the last dosing.
The brain cathepsin B activity in guinea pigs was measured as follows: Cathepsin B activity was determined using a fluorometric assay kit from Abcam, Inc. (catalog ab65300; Cambridge, Mass.) as described by the manufacturer.

BACE1 = assay: Example 9: brain BACE1 activity in guinea pigs; format: in vivo, guinea pig; conditions: once-a-day oral
Experimental: as §1, with “dosing. The brain BACE1 activity in guinea pigs was measured by Beta secretase activity was determined using a fluorometric assay kit from Abcam (ab65357) as described by the manufacturer.” for “dosing.”

[2] = test system: brain Aβ40 and brain Aβ42; assay: Example 8: brain Aβ40 and Aβ42 ELISA after oral gavage in wild-type guinea pigs; format: in vivo; conditions: guinea pig, 10 mg/kg/day oral, 7 days
[3] = oral; cited from earlier work
[4] = cited from earlier work
healthy human volunteers = conditions: single or continuous 1 week oral administration at about 5 mg/kg/day; cited from earlier work
[5] = animals, radioactive AB-007; cited from earlier work
rats = conditions: cited from earlier work
dogs = conditions: cited from earlier work
transgenic APPlon mice = assay: Example 9: Morris water maze, spatial memory deficit in transgenic APPlon mice; conditions: E64d-doped chow 1 or 3 months, either age group
Description: Transgenic AD Mice. Transgenic mice expressing human APP containing the wt β-secretase site and the London mutant γ-secretase site sequences (also called “transgenic APPlon mice”, or “London APP mice”) were generated at the Ralph A. Johnson VA Medical Center (Charleston, S.C.) by methods previously described, see e.g., Hook, et al. (2008) J. Biol. Chem. 283:7745-7753. Briefly, APPLn was generated using site-directed mutagenesis to insert the V7171 London mutation into human APP cDNA. The mouse strain was created in a C57BL/6 mouse background using the Thy-1.2 expression cassette driven by the Thy-1 promoter containing an SV40 polyadenylation site. Mice were given free access to food and water before and during the experiment. […]
The memory deficit in transgenic APPln mice (APPlon mice) was measured using the Morris water maze test. Briefly, the spatial memory capability of each animal was assessed by the Morris water maze test as described e.g., by S. Mueller-Steiner (2006) Neuron 51:703-714; using catalog part no. […] Two days following the nonspatial pretraining, the hidden platform was placed in the center of one quadrant of the pool, the animal was released facing the pool wall in a random fashion, the time was recorded (latency period), and the distance traveled to reach the platform was measured using video recording (Smart Video Tracking System; SD Instruments).

Cathepsin B [6] = biological target: Cathepsin B (Homo sapiens, UniProt P07858); assay: biochemical
[7] = test system: dogs with canine dementia; conditions: in one month; cited from earlier work

[2H]C([2H])([2H])C([2H])(CCNC(=O)[C@H](CC(C)C)NC(=O)[C@H]1O[C@@H]1C(=O)OCC)C([2H])([2H])[2H] [Compound E64d7]
CSF Aβ (Aβ40 and Aβ42): dose response reduction
CSF Aβ(42) (Aβ40 and Aβ42): dose response reduction
brain Aβ(40) (Aβ40 and Aβ42): dose response reduction
brain Aβ(42) (Aβ40 and Aβ42): dose response reduction
plasma Aβ(40) (Aβ40 and Aβ42): dose response reduction
plasma Aβ(42) (Aβ40 and Aβ42): dose response reduction
brain cathepsin B activity (cathepsin B [1]): dose response reduction
brain BACE1 activity (BACE1): increase

CCOC(=O)[C@H]1O[C@@H]1C(=O)N[C@@H](CC(C)C)C(=O)NCCC(C)C (relative stereo) [AB-007, (2S,3S)-trans-epoxysuccinyl-L-leucyl-amido-3-methylbutane ethyl ester]
reduction of brain Aβ42 relative to vehicle control [2]: 42%
CSF Aβ (Aβ40 and Aβ42): dose response reduction
CSF Aβ(42) (Aβ40 and Aβ42): dose response reduction
brain Aβ(40) (Aβ40 and Aβ42): dose response reduction
brain Aβ(42) (Aβ40 and Aβ42): dose response reduction
plasma Aβ(40) (Aβ40 and Aβ42): dose response reduction
plasma Aβ(42) (Aβ40 and Aβ42): dose response reduction
brain cathepsin B activity (cathepsin B [1]): dose response reduction
brain BACE1 activity (BACE1): increase
conversion in the gut to E64c [3]: rapidly and completely converted
effect on the central nervous system ([4]; high oral doses (500 mg/kg and 1 g/kg)): depress the central nervous system, causing sedation and mild inhibition of pentetrazol-induced seizure
influence on vision or hearing ([4]; maximal intravenous or oral doses, rats): do not influence vision or hearing
hematological tests, blood chemistry, urinalyses (healthy human volunteers): no changes
pulse, blood pressure, body temperature, grip force, electrocardiogram, physician observations (healthy human volunteers): no change
concentration in all other organs, including the brain [5]: corresponding to the plasma concentration or concentrations lower than plasma
kidney concentration relative to plasma concentration [5]: ~12 times
subacute no-effect dose (rats; oral, rats): under 80 mg/kg/day
chronic toxicity no-effect dose level (rats; rat, in vivo): below 2 mg/kg/day
target organs for toxicity (rats; rat, in vivo): liver and kidney
hepatic injury, species sensitivity (rats; rats versus other species): hepatic injury seen in rats does not occur in other species
chronic toxicity no-effect dose level (dogs; dog, in vivo): < 5 mg/kg/day
subacute no-effect dose (dogs; oral, dogs): < 40 mg/kg/day
mean latency period relative to age-matched controls (transgenic APPlon mice): significantly reduced

[2H]C([2H])([2H])C([2H])(C[C@H](NC(=O)[C@H]1O[C@@H]1C(=O)O)C(=O)NCCC(C)C)C([2H])([2H])[2H] [Compound 2B, (2S,3S)-3-((S)-4,5,5,5-d4-1-(isopentylamino)-1-oxo-4-(methyl-d3)pentan-2-ylcarbamoyl)oxirane-2-carboxylic acid]
IC50 (Cathepsin B [6]): 1.5 nM

[2H][C@@](CC(C)C)(NC(=O)[C@H]1O[C@@H]1C(=O)O)C(=O)NCCC(C)C [Compound 3B, (2S,3S)-3-((S)-2-d1-1-(isopentylamino)-4-methyl-1-oxopentan-2-ylcarbamoyl)oxirane-2-carboxylic acid]
IC50 (Cathepsin B [6]): 1.9 nM

C#CCN(C)[C@H](C)Cc1ccccc1 [Anipryl]
affected dogs with improved behavior [7]: about 75%

[2H]C([2H])([2H])C(C)C[C@H](NC(=O)[C@H]1O[C@@H]1C(=O)O)C(=O)NCCC(C)C (stereo partly drawn) [Compound 1B, (2S,3S)-3-((S)-1-(Isopentylamino)-4-methyl-d3-1-oxopentan-2-ylcarbamoyl)oxirane-2-carboxylic acid]
IC50 (Cathepsin B [6]): 2 nM

CC(C)CCNC(=O)[C@H](CC(C)C)NC(=O)[C@H]1O[C@@H]1C(=O)O [Compound E64c]
IC50 (Cathepsin B [6]): 1 nM
